Molecular target: IRAK4 (Homo sapiens (Human), UniProt Q9NWZ3)
Experiment: In vitro IRAK4 phosphorylation activity assay
Format: biochemical
Conditions: [γ-33P]-ATP, myelin basic protein substrate, 40 minutes at room temperature; categories
How it was run: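 Radiometric filter-binding assay, no compound–kinase preincubation; 8 mM MOPS pH 7.0, 0.2 mM EDTA, 10 mM Mg acetate, 0.33 mg/mL myelin basic protein substrate, [γ-33P]-ATP. Reaction 40 min at room temperature, stopped with phosphoric acid, scintillation counting; IC50 reported in categories.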

Chain of IRAK4 (Q9NWZ3 whole entry): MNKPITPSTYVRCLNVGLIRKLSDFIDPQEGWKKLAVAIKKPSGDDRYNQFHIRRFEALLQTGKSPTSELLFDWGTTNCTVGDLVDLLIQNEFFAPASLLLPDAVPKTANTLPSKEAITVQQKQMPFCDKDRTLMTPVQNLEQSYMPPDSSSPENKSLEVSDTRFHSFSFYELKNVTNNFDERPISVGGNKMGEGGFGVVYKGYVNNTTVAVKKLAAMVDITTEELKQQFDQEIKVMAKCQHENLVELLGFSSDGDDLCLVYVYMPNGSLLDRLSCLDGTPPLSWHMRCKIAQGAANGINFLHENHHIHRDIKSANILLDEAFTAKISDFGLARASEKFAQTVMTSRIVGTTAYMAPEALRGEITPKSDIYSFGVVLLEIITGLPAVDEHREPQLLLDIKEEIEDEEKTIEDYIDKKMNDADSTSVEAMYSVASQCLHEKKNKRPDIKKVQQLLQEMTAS

Row | Structure (SMILES) | IC50 [nM]
1 | CN1CCC(NC(=O)CCCc2cn(-c3ccccc3)c(NC(=O)c3cccc(-c4cnn(C)c4)c3)n2)CC1 [Example 148, 3-(1-methyl-1H-pyrazol-4-yl)-N-(4-(4-((1-methylpiperidin-4-yl)amino)-4-oxobutyl)-1-phenyl-1H-imidazol-2-yl)benzamide] | 50 to 100
2 | CNC(=O)Cc1cn(-c2ccccc2)c(NC(=O)c2ccccc2)n1 [Example 50, N-(4-(2-(methylamino)-2-oxoethyl)-1-phenyl-1H-imidazol-2-yl)benzamide] | > 100
3 | CN(C)CCCNC(=O)CCCc1cn(-c2ccccc2)c(NC(=O)c2cccc(-c3cnn(C)c3)c2)n1 [Example 163, N-(4-(4-((3-(dimethylamino)propyl)amino)-4-oxobutyl)-1-phenyl-1H-imidazol-2-yl)-3-(1-methyl-1H-pyrazol-4-yl)benzamide] | 50 to 100
4 | O=C(CCc1cn(Cc2ccccc2)c(NC(=O)c2cccc(-c3cn[nH]c3)c2)n1)Nc1ccccc1 [Example 292, N-(1-benzyl-4-(3-oxo-3-(phenylamino)propyl)-1H-imidazol-2-yl)-3-(1H-pyrazol-4-yl)benzamide] | > 100
5 | Cn1cc(-c2cccc(C(=O)Nc3nc(CCCC(=O)Nc4ccncc4)cn3-c3ccccc3)c2)cn1 [Example 150, 3-(1-methyl-1H-pyrazol-4-yl)-N-(4-(4-oxo-4-(pyridin-4-ylamino)butyl)-1-phenyl-1H-imidazol-2-yl)benzamide] | < 50
6 | CNC(=O)CCCc1cn(-c2ccccc2)c(NC(=O)c2cccc(-c3cn[nH]c3)c2)n1 [Example 60, N-(4-(4-(methylamino)-4-oxobutyl)-1-phenyl-1H-imidazol-2-yl)-3-(1H-pyrazol-4-yl)benzamide] | < 50
7 | O=C(CCc1cn(-c2ccccc2)c(NC(=O)c2cccc(-c3cn[nH]c3)c2)n1)Nc1ccc(F)cc1 [Example 10, N-(4-(3-((4-fluorophenyl)amino)-3-oxopropyl)-1-phenyl-1H-imidazol-2-yl)-3-(1H-pyrazol-4-yl)benzamide] | 50 to 100
8 | Cn1cc(-c2cccc(C(=O)Nc3nc(CCCC(=O)NC4CCOC4)cn3-c3ccccc3)c2)cn1 (stereo not drawn) [Example 179, 3-(1-methyl-1H-pyrazol-4-yl)-N-(4-(4-oxo-4-((tetrahydrofuran-3-yl)amino)butyl)-1-phenyl-1H-imidazol-2-yl)benzamide] | < 50
9 | Cn1ncc(-c2cccc(C(=O)Nc3nc(CCCC(=O)NC4CC4)cn3-c3ccccc3)c2)c1F [Example 232, N-(4-(4-(cyclopropylamino)-4-oxobutyl)-1-phenyl-1H-imidazol-2-yl)-3-(5-fluoro-1-methyl-1H-pyrazol-4-yl)benzamide] | 50 to 100
10 | COC[C@H]1CCCN1NC(=O)CCc1cn(-c2ccccc2)c(NC(=O)c2cccc(-c3cn[nH]c3)c2)n1 [Example 17, (R)—N-(4-(3-((2-(methoxymethyl)pyrrolidin-1-yl)amino)-3-oxopropyl)-1-phenyl-1H-imidazol-2-yl)-3-(1H-pyrazol-4-yl)benzamide] | > 100
11 | Cn1cc(-c2cccc(C(=O)Nc3nc(CCCC(=O)Nc4cc[nH]n4)cn3-c3ccccc3)c2)cn1 [Example 217, N-(4-(4-((1H-pyrazol-3-yl)amino)-4-oxobutyl)-1-phenyl-1H-imidazol-2-yl)-3-(1-methyl-1H-pyrazol-4-yl)benzamide] | < 50
12 | Cn1cc(-c2cccc(C(=O)Nc3nc(CCCC(=O)NCCN4CCOCC4)cn3-c3ccccc3)c2)cn1 [Example 184, 3-(1-methyl-1H-pyrazol-4-yl)-N-(4-(4-((2-morpholinoethyl)amino)-4-oxobutyl)-1-phenyl-1H-imidazol-2-yl)benzamide] | > 100
13 | Cn1cc(-c2cccc(C(=O)Nc3nc(CCCCCCN4C(=O)CCC4=O)cn3-c3ccccc3)c2)cn1 [Example 226, N-(4-(6-(2,5-dioxopyrrolidin-1-yl)hexyl)-1-phenyl-1H-imidazol-2-yl)-3-(1-methyl-1H-pyrazol-4-yl)benzamide] | < 50
14 | CC1CCCCN1C(=O)CCCc1cn(-c2ccccc2)c(NC(=O)c2cccc(-c3cnn(C)c3)c2)n1 (stereo not drawn) [Example 166, 3-(1-methyl-1H-pyrazol-4-yl)-N-(4-(4-(2-methylpiperidin-1-yl)-4-oxobutyl)-1-phenyl-1H-imidazol-2-yl)benzamide] | < 50
15 | O=C(Nc1nc(CCCCCC(=O)N2CCCCC2)cn1-c1ccccc1)c1cccc(-c2cn[nH]c2)c1 [Example 93, N-(4-(6-oxo-6-(piperidin-1-yl)hexyl)-1-phenyl-1H-imidazol-2-yl)-3-(1H-pyrazol-4-yl)benzamide] | < 50
16 | Cn1cc(-c2cccc(C(=O)Nc3nc(CCCC(=O)NCCO)cn3-c3ccccc3)c2)cn1 [Example 164, N-(4-(4-((2-hydroxyethyl)amino)-4-oxobutyl)-1-phenyl-1H-imidazol-2-yl)-3-(1-methyl-1H-pyrazol-4-yl)benzamide] | < 50
17 | O=C(Nc1nc(CCCCCC(=O)N2CCCC2)cn1-c1ccccc1)c1cccc(-c2ccc3[nH]ncc3c2)c1 [Example 240, 3-(1H-indazol-5-yl)-N-(4-(6-oxo-6-(pyrrolidin-1-yl)hexyl)-1-phenyl-1H-imidazol-2-yl)benzamide] | < 50

More lines, now with the values ahead:

Row | IC50 [nM] | Structure (SMILES)
18 | < 50 | CC(C)N1CCN(C(=O)CCCc2cn(-c3ccccc3)c(NC(=O)c3cccc(-c4cnn(C)c4)c3)n2)CC1 [Example 145, N-(4-(4-(4-isopropylpiperazin-1-yl)-4-oxobutyl)-1-phenyl-1H-imidazol-2-yl)-3-(1-methyl-1H-pyrazol-4-yl)benzamide]
19 | < 50 | Cn1cc(-c2cccc(C(=O)Nc3nc(CCCC(=O)NCCCN4CCCCC4)cn3-c3ccccc3)c2)cn1 [Example 158, 3-(1-methyl-1H-pyrazol-4-yl)-N-(4-(4-oxo-4-((3-(piperidin-1-yl)propyl)amino)butyl)-1-phenyl-1H-imidazol-2-yl)benzamide]
20 | < 50 | O=C(Nc1nc(CCC(=O)N2CCCCC2)cn1-c1ccccc1)c1cccc(-c2cn[nH]c2)c1 [Example 12, N-(4-(3-oxo-3-(piperidin-1-yl)propyl)-1-phenyl-1H-imidazol-2-yl)-3-(1H-pyrazol-4-yl)benzamide]
21 | < 50 | C[C@@H]1CCCCN1C(=O)CCCc1cn(-c2ccccc2)c(NC(=O)c2cccc(-c3cn[nH]c3)c2)n1 [Example 61, (R)—N-(4-(4-(2-methylpiperidin-1-yl)-4-oxobutyl)-1-phenyl-1H-imidazol-2-yl)-3-(1H-pyrazol-4-yl)benzamide]
22 | < 50 | Cn1cc(-c2cccc(C(=O)Nc3nc(CCCC(=O)N4CCOCC4)cn3-c3ccccc3)c2)cn1 [Example 160, 3-(1-methyl-1H-pyrazol-4-yl)-N-(4-(4-morpholino-4-oxobutyl)-1-phenyl-H-imidazol-2-yl)benzamide]
23 | < 50 | COC(=O)CCCCCc1cn(-c2ccccc2)c(NC(=O)c2cccc(-c3cn[nH]c3)c2)n1 [Example 91, methyl 6-(2-(3-(1H-pyrazol-4-yl)benzamido)-1-phenyl-1H-imidazol-4-yl)hexanoate]
24 | < 50 | C[C@@H]1CCC[C@H](C)N1C(=O)CCc1cn(-c2ccccc2)c(NC(=O)c2cccc(-c3cn[nH]c3)c2)n1 [Example 32, N-(4-(3-((2R,6S)-2,6-dimethylpiperidin-1-yl)-3-oxopropyl)-1-phenyl-1H-imidazol-2-yl)-3-(1H-pyrazol-4-yl)benzamide]
25 | < 50 | O=C(CCCc1cn(-c2ccccc2)c(NC(=O)c2cccc(-c3cn[nH]c3)c2)n1)NC1CC1 [Example 68, N-(4-(4-(cyclopropylamino)-4-oxobutyl)-1-phenyl-1H-imidazol-2-yl)-3-(1H-pyrazol-4-yl)benzamide]
26 | < 50 | COC1CCC(NC(=O)CCCc2cn(-c3ccccc3)c(NC(=O)c3cccc(-c4cnn(C)c4)c3)n2)CC1 (stereo not drawn) [Example 161, N-(4-(4-((4-methoxycyclohexyl)amino)-4-oxobutyl)-1-phenyl-1H-imidazol-2-yl)-3-(1-methyl-1H-pyrazol-4-yl)benzamide]
27 | < 50 | O=C(Nc1nc(CCCCNC(=O)C2CC2)cn1-c1ccccc1)c1cccc(-c2ccc3[nH]ncc3c2)c1 [Example 261, N-(4-(4-(cyclopropanecarboxamido)butyl)-1-phenyl-1H-imidazol-2-yl)-3-(1H-indazol-5-yl)benzamide]
28 | < 50 | CN1CCCN(C(=O)CCCc2cn(-c3ccccc3)c(NC(=O)c3cccc(-c4cnn(C)c4)c3)n2)CC1 [Example 183, N-(4-(4-(4-methyl-1,4-diazepan-1-yl)-4-oxobutyl)-1-phenyl-1H-imidazol-2-yl)-3-(1-methyl-1H-pyrazol-4-yl)benzamide]
29 | < 50 | Cn1cc(-c2cccc(C(=O)Nc3nc(CCCC(=O)NC4CCOCC4)cn3-c3ccccc3)c2)cn1 [Example 157, 3-(1-methyl-1H-pyrazol-4-yl)-N-(4-(4-oxo-4-((tetrahydro-2H-pyran-4-yl)amino)butyl)-1-phenyl-1H-imidazol-2-yl)benzamide]
30 | < 50 | Cn1cc(-c2cccc(C(=O)Nc3nc(CCCC(=O)NC4CC4)cn3-c3ccccc3)c2)cn1 [Example 141, N-(4-(4-(cyclopropylamino)-4-oxobutyl)-1-phenyl-1H-imidazol-2-yl)-3-(1-methyl-1H-pyrazol-4-yl)benzamide]
31 | < 50 | O=C(Nc1nc(CCCNc2ccccc2)cn1-c1ccccc1)c1cccc(-c2cn[nH]c2)c1 [Example 109, N-(1-phenyl-4-(3-(phenylamino)propyl)-1H-imidazol-2-yl)-3-(1H-pyrazol-4-yl)benzamide]
32 | < 50 | CN1CCN(C(=O)CCCc2cn(-c3ccccc3)c(NC(=O)c3cccc(-c4ccc(N)nc4)c3)n2)CC1 [Example 274, 3-(6-aminopyridin-3-yl)-N-(4-(4-(4-methylpiperazin-1-yl)-4-oxobutyl)-1-phenyl-1H-imidazol-2-yl)benzamide]
33 | < 50 | O=C(Nc1nc(CCCCCC(=O)N2CCCCC2)cn1-c1ccccc1)c1cccc(-c2ccc3[nH]ncc3c2)c1 [Example 237, 3-(1H-indazol-5-yl)-N-(4-(6-oxo-6-(piperidin-1-yl)hexyl)-1-phenyl-1H-imidazol-2-yl)benzamide]
